Legend:
Assay in all cases: In vitro antifungal activity, microbroth dilution MIC
Format in all cases: cell-based
[1] = tested on: Aspergillus furnigatus B. 19119; conditions: 4 to 48 hours; for Minimal inhibitory concentration (MIC): A furnigatus B. 19119, RPMI-1640, 35° C.
Method in brief: (§1)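 Broth microdilution adapted from NCCLS M27, in RPMI-1640 with 0.165 M MOPS, pH 7.0. Yeast or mould inoculum at 2×10^3 CFU/ml was mixed 1:1 with DMSO-derived compound solutions (200 to 0.10 μg/ml before mixing) and incubated at 35 °C for 4 to 48 h. MIC was the concentration showing no growth.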

[2] = tested on: Torulopsis glabrata B. 16205; conditions: 4 to 48 hours; for Minimal inhibitory concentration (MIC): T. glabrata B. 16205, RPMI-1640, 35° C.
Method in brief: as §1

[3] = tested on: Candida parapsitosis A. 7330; conditions: 4 to 48 hours; for Minimal inhibitory concentration (MIC): C. parapsitosis A. 7330, RPMI-1640, 35° C.
Method in brief: as §1

[4] = tested on: Candida pseudotropicalis K. 11658; conditions: 4 to 48 hours; for Minimal inhibitory concentration (MIC): C. pseudotropicalis K. 11658, RPMI-1640, 35° C.
Method in brief: as §1

[5] = tested on: Candida krusei K. 11655; conditions: 4 to 48 hours; for Minimal inhibitory concentration (MIC): C. krusei K. 11655, RPMI-1640, 35° C.
Method in brief: as §1

[6] = tested on: Aspergillus niger A. 16404; conditions: 4 to 48 hours; for Minimal inhibitory concentration (MIC): A. niger A. 16404, RPMI-1640, 35° C.
Method in brief: as §1

[7] = tested on: Candida tropicalis A. 13803; conditions: 4 to 48 hours; for Minimal inhibitory concentration (MIC): C. tropicalis A. 13803, RPMI-1640, 35° C.
Method in brief: as §1

[8] = tested on: Candida albicans IFO. 1385; conditions: 4 to 48 hours; for Minimal inhibitory concentration (MIC): C. albicans IFO. 1385, RPMI-1640, 35° C.
Method in brief: as §1

[9] = tested on: Cryptococcus neoformans A. 34144; conditions: 4 to 48 hours; for Minimal inhibitory concentration (MIC): Cry. neoformans A. 34144, RPMI-1640, 35° C.
Method in brief: as §1

[10] = tested on: Cryptococcus neoformans IFM. 40092; conditions: 4 to 48 hours; for Minimal inhibitory concentration (MIC): Cry. neoformans IFM. 40092, RPMI-1640, 35° C.
Method in brief: as §1

[11] = tested on: Cryptococcus neoformans B. 42419; conditions: 4 to 48 hours; for Minimal inhibitory concentration (MIC): Cry. neoformans B. 42419, RPMI-1640, 35° C.
Method in brief: as §1

[12] = tested on: Trichophyton mentagrophytes A. 9129; conditions: 4 to 48 hours; for Minimal inhibitory concentration (MIC): T. mentagrophytes A. 9129, RPMI-1640, 35° C.
Method in brief: as §1

[13] = tested on: Trichophyton mentagrophytes B. 32663; conditions: 4 to 48 hours; for Minimal inhibitory concentration (MIC): T. mentagrophytes B. 32663, RPMI-1640, 35° C.
Method in brief: as §1

[14] = tested on: Candida albicans C1-2; conditions: 4 to 48 hours; for Minimal inhibitory concentration (MIC): C. albicans C1-2, RPMI-1640, 35° C.
Method in brief: as §1

[15] = tested on: Candida albicans A. 10231; conditions: 4 to 48 hours; for Minimal inhibitory concentration (MIC): C. albicans A. 10231, RPMI-1640, 35° C.
Method in brief: as §1

[16] = RPMI-1640, 35° C., no growth observed

Row | SMILES | Minimal inhibitory concentration (MIC) [1] | Minimal inhibitory concentration (MIC) [2] | Minimal inhibitory concentration (MIC) [3] | Minimal inhibitory concentration (MIC) [4] | Minimal inhibitory concentration (MIC) [5] | Minimal inhibitory concentration (MIC) [6] | Minimal inhibitory concentration (MIC) [7] | Minimal inhibitory concentration (MIC) [8] | Minimal inhibitory concentration (MIC) [9] | Minimal inhibitory concentration (MIC) [10] | Minimal inhibitory concentration (MIC) [11] | Minimal inhibitory concentration (MIC) [12] | Minimal inhibitory concentration (MIC) [13] | Minimal inhibitory concentration (MIC) [14] | Minimal inhibitory concentration (MIC) [15] | further results
1 | FC(Oc1ccc(OCC2COC(Cn3ccnc3)(c3ccc(F)cc3F)O2)cc1)=C(c1ccccc1)C(F)(F)F (mixture of isomers) [Ex. 106] |  |  |  |  |  |  |  |  |  |  |  |  |  |  |  | Minimal inhibitory concentration(MIC), A furnigatus B. 19119 [1, 16]: >100 µg/mL; Minimal inhibitory concentration(MIC), T. glabrata B. 16205 [2, 16]: 50.0 µg/mL; Minimal inhibitory concentration(MIC), C. parapsitosis A. 7330 [3, 16]: 3.13 µg/mL; Minimal inhibitory concentration(MIC), C. pseudotropicalis K. 11658 [4, 16]: 3.13 µg/mL; Minimal inhibitory concentration(MIC), C. krusei K. 11655 [5, 16]: 3.13 µg/mL; Minimal inhibitory concentration(MIC), A. niger A. 16404 [6, 16]: >100 µg/mL; Minimal inhibitory concentration(MIC), C. tropicalis A. 13803 [7, 16]: >100 µg/mL; Minimal inhibitory concentration(MIC), C. albicans IFO. 1385 [8, 16]: 1.56 µg/mL; Minimal inhibitory concentration(MIC), Cry. neoformans A. 34144 [9, 16]: 1.56 µg/mL; Minimal inhibitory concentration(MIC), Cry. neoformans IFM. 40092 [10, 16]: 0.39 µg/mL; Minimal inhibitory concentration(MIC), Cry. neoformans B. 42419 [11, 16]: 1.56 µg/mL; Minimal inhibitory concentration(MIC), T. mentagrophytes A. 9129 [12, 16]: 3.13 µg/mL; Minimal inhibitory concentration(MIC), T. mentagrophytes B. 32663 [13, 16]: 1.56 µg/mL; Minimal inhibitory concentration(MIC), C. albicans C1-2 [14, 16]: 50.0 µg/mL; Minimal inhibitory concentration(MIC), C. albicans A. 10231 [15, 16]: 100 µg/mL
2 | FC(=Cc1ccccc1)OCC1COC(Cn2ccnc2)(c2ccc(F)cc2F)O1 (mixture of isomers) [Ex. 36] | 1.56 µg/mL | 25.0 µg/mL | 25.0 µg/mL | 25.0 µg/mL | 50.0 µg/mL | 12.5 µg/mL | 100 µg/mL | 0.78 µg/mL | 6.25 µg/mL | 0.78 µg/mL | 3.13 µg/mL | 1.56 µg/mL | 0.39 µg/mL | 50.0 µg/mL | 50.0 µg/mL | 
3 | Cc1cc(C)cc(C(=C(F)OCC2COC(Cn3ccnc3)(c3ccc(F)cc3F)O2)C(F)(F)F)c1 (mixture of isomers) [Ex. 57] | 50.0 µg/mL | 6.25 µg/mL | >100 µg/mL | >100 µg/mL | >100 µg/mL | >100 µg/mL | 100 µg/mL | 0.78 µg/mL | 1.56 µg/mL | 0.20 µg/mL | 0.78 µg/mL | 6.25 µg/mL | 3.13 µg/mL | 12.5 µg/mL | 12.5 µg/mL | 

The next lines start with results.

Row | Minimal inhibitory concentration (MIC) [1] | Minimal inhibitory concentration (MIC) [2] | Minimal inhibitory concentration (MIC) [3] | Minimal inhibitory concentration (MIC) [4] | Minimal inhibitory concentration (MIC) [5] | Minimal inhibitory concentration (MIC) [6] | Minimal inhibitory concentration (MIC) [7] | Minimal inhibitory concentration (MIC) [8] | Minimal inhibitory concentration (MIC) [9] | Minimal inhibitory concentration (MIC) [10] | Minimal inhibitory concentration (MIC) [11] | Minimal inhibitory concentration (MIC) [12] | Minimal inhibitory concentration (MIC) [13] | Minimal inhibitory concentration (MIC) [14] | Minimal inhibitory concentration (MIC) [15] | SMILES | further results
4 | 6.25 µg/mL | 6.25 µg/mL | 12.5 µg/mL | 12.5 µg/mL | 25.0 µg/mL | 25.0 µg/mL | 25.0 µg/mL | 0.39 µg/mL | 1.56 µg/mL | 0.20 µg/mL | 1.56 µg/mL | 3.13 µg/mL | 0.78 µg/mL | 12.5 µg/mL | 12.5 µg/mL | Cc1cc(C=C(F)OCC2COC(Cn3ccnc3)(c3ccc(F)cc3F)O2)ccc1Cl (mixture of isomers) [Ex. 50] | 
5 | 1.56 µg/mL | 12.5 µg/mL | 25.0 µg/mL | 12.5 µg/mL | 25.0 µg/mL | 6.25 µg/mL | 50.0 µg/mL | 0.20 µg/mL | 0.78 µg/mL | ≦0.10 μg/ml | 0.78 µg/mL | 0.39 µg/mL | ≦0.10 μg/ml | 25.0 µg/mL | 25.0 µg/mL | FC(=Cc1cccc(F)c1)OCC1COC(Cn2ccnc2)(c2ccc(F)cc2F)O1 (mixture of isomers) [Ex. 48] | 
